pIC50: −log10 of the molar value.
Biological target: T1, GSNOR (Homo sapiens, UniProt P11766)
T1 construct: made in house; host or cells: E. coli
Assay: GSNOR assay (inhibition of GSNOR activity, change in 340 nm absorbance)
Type: biochemical
Details: 100 mM NaPO4 pH 7.4, 0.240 mM GSNO, 0.300 mM NADH, 0.5 μg/mL GSNO Reductase, 1% DMSO, 25° C.
Procedure: Various compounds were tested in vitro for their ability to inhibit GSNOR activity.
GSNOR expression and purification is described in Biochemistry 2000, 39, 10720-10729.
GSNOR Fermentation: Pre-cultures were grown from stabs of a GSNOR glycerol stock in 2XYT media containing 100 ug/ml ampicillin after an overnight incubation at 37° C. Cells were then added to fresh 2XYT (4 L) containing ampicillin and grown to an OD (A600) of 0.6-0.9 at 37° C. before induction. GSNOR expression was induced with 0.1% arabinose in an overnight incubation at 20° C.
GSNOR Purification: E. coli cell paste was lysed by nitrogen cavitation and the clarified lysate purified by Ni affinity chromatography on an AKTA FPLC (Amersham Pharmacia). The column was eluted in 20 mM Tris pH 8.0/250 mM NaCl with a 0-500 mM imidazole gradient. Eluted GSNOR fractions containing the Smt-GSNOR fusion were digested overnight with Ulp-1 at 4° C. to remove the affinity tag then re-run on the Ni column under the same conditions. GSNOR was recovered in the flowthrough fraction and for crystallography is further purified by Q-Sepharose and Heparin flowthrough chromatography in 20 mM Tris pH 8.0, 1 mM DTT, 10 uM ZnSO4.
GSNOR Assay: GSNO and enzyme/NADH Solutions are made up fresh each day. The solutions are filtered and allowed to warm to room temperature. GSNO solution: 100 mM NaPO4 (pH 7.4), 0.480 mM GSNO. 396 μL of GSNO Solution is added to a cuvette followed by 8 μL of test compound in DMSO (or DMSO only for full reaction control) and mixed with the pipette tip. Compounds to be tested are made up at a stock concentration of 10 mM in 100% DMSO. 2 fold serial dilutions are done in 100% DMSO. 8 μL of each dilution are added to an assay so that the final concentration of DMSO in the assay is 1%. The concentrations of compounds tested range from 100 to 0.003 μM. Enzyme/NADH solution: 100 mM NaPO4 (pH 7.4), 0.600 mM NADH, 1.0 μg/mL GSNO Reductase. 396 μL of the Enzyme/NADH solution is added to the cuvette to start the reaction. The cuvette is placed in the Cary 3E UV/Visible Spectrophotometer and the change in 340 nm absorbance/min at 25° C. is recorded for 3 minutes. The assays are done in triplicate for each compound concentration. IC50's for each compound are calculated using the standard curve analysis in the Enzyme Kinetics Module of SigmaPlot.
Final assay conditions: 100 mM NaPO4, pH 7.4, 0.240 mM GSNO, 0.300 mM NADH, 0.5 μg/mL GSNO Reductase, and 1% DMSO. Final volume: 800 μL/cuvette.

T1 sequence (P11766 whole entry): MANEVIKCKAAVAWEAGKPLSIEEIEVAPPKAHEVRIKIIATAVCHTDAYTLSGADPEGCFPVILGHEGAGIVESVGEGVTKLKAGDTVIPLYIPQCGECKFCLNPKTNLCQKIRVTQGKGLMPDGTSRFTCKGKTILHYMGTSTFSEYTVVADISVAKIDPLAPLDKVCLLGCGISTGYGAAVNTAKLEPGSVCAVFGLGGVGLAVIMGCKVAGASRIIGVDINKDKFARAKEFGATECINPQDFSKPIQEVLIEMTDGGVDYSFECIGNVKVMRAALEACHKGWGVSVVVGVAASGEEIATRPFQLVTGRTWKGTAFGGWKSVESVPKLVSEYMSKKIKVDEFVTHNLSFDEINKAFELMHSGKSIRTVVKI

`O=C(O)c1ccc(-c2ccc3cc(O)ccc3c2)c(F)c1` [Example 2, 3-fluoro-4-(6-hydroxynaphthalen-2-yl)benzoic acid] and `COc1cc(C(=O)O)ccc1-c1ccc2cc(O)ccc2c1` [Example 3, 4-(6-hydroxynaphthalen-2-yl)-3-methoxybenzoic acid] cannot be ordered by pIC50: greater than 7.30 for the first, greater than 7.00 for the second.

`CN(C)c1cc(C(=O)O)ccc1-c1ccc2cc(O)ccc2c1` [Example 5, 3-(dimethylamino)-4-(6-hydroxynaphthalen-2-yl)benzoic acid] and `N#Cc1cc(C(=O)O)ccc1-c1ccc2cc(O)ccc2c1` [Example 6, 3-cyano-4-(6-hydroxynaphthalen-2-yl)benzoic acid] cannot be ordered by pIC50: greater than 7.00 for the first, greater than 7.30 for the second.

`O=C(O)c1ccc(-c2ccc3cc(O)ccc3c2Br)cc1` [Example 12, 4-(1-bromo-6-hydroxynaphthalen-2-yl)benzoic acid] and `O=C(O)c1ccc(-c2ccc3cc(O)ccc3c2Cl)cc1` [Example 17, 4-(1-chloro-6-hydroxynaphthalen-2-yl)benzoic acid] cannot be ordered by pIC50: greater than 7.30 for the first, greater than 7.30 for the second.

`N#Cc1c(-c2ccc(C(=O)O)cc2)ccc2cc(O)ccc12` [Example 15, 4-(1-cyano-6-hydroxynaphthalen-2-yl)benzoic acid] and `O=C(O)c1ccc(-c2ccc3cc(O)ccc3c2F)cc1` [Example 25, 4-(1-fluoro-6-hydroxynaphthalen-2-yl)benzoic acid] cannot be ordered by pIC50: greater than 7.30 for the first, greater than 7.30 for the second.

`Oc1ccc2cc(-c3ccc(-c4nnn[nH]4)cc3)ccc2c1` [Example 18, 6-(4-(1H-tetrazol-5-yl)phenyl)naphthalen-2-ol] and `O=C(O)c1ccc(-c2ccc3cc(O)ccc3c2)cc1` [Example 33, 4-(6-hydroxynaphthalen-2-yl)benzoic acid] cannot be ordered by pIC50: greater than 7.00 for the first, greater than 7.00 for the second.

`O=C(O)c1ccc(-c2ccc3cc(O)ccc3c2)c(C(F)(F)F)c1` [Example 20, 4-(6-hydroxynaphthalen-2-yl)-3-(trifluoromethyl)benzoic acid] and `O=C(O)c1ccc(-c2cc3ccc(O)cc3cc2F)cc1` [Example 23, 4-(3-fluoro-6-hydroxynaphthalen-2-yl)benzoic acid] cannot be ordered by pIC50: greater than 7.00 for the first, greater than 7.30 for the second.

`O=C(O)c1ccc(-c2cc3ccc(O)cc3cc2F)c(Cl)c1` [Example 21, 3-chloro-4-(3-fluoro-6-hydroxynaphthalen-2-yl)benzoic acid] and `O=C(O)c1ccc(-c2cc3ccc(O)cc3cc2Cl)cc1` [Example 22, 4-(3-chloro-6-hydroxynaphthalen-2-yl)benzoic acid] cannot be ordered by pIC50: greater than 7.30 for the first, greater than 7.30 for the second.

`COc1c(-c2ccc(C(=O)O)cc2)ccc2cc(O)ccc12` [Example 24, 4-(6-hydroxy-1-methoxynaphthalen-2-yl)benzoic acid] and `Cc1cc2cc(O)ccc2cc1-c1ccc(C(=O)O)cc1` [Example 26, 4-(6-hydroxy-3-methylnaphthalen-2-yl)benzoic acid] cannot be ordered by pIC50: greater than 7.00 for the first, greater than 7.00 for the second.

`N#Cc1c(-c2ccc(C(=O)O)cc2)ccc2c(F)c(O)ccc12` [Example 27, 4-(1-cyano-5-fluoro-6-hydroxynaphthalen-2-yl)benzoic acid] and `O=C(O)c1ccc(-c2ccc3c(F)c(O)ccc3c2)cc1` [Example 30, 4-(5-fluoro-6-hydroxynaphthalen-2-yl)benzoic acid] cannot be ordered by pIC50: greater than 7.30 for the first, greater than 7.30 for the second.

`N#Cc1c(-c2ccc(C(=O)O)cc2F)ccc2cc(O)ccc12` [Example 28, 4-(1-cyano-6-hydroxynaphthalen-2-yl)-3-fluorobenzoic acid] and `O=C(O)c1ccc(-c2ccc3c(F)c(O)ccc3c2)c(F)c1` [Example 31, 3-fluoro-4-(5-fluoro-6-hydroxynaphthalen-2-yl)benzoic acid] cannot be ordered by pIC50: greater than 7.30 for the first, greater than 7.30 for the second.

`O=C(O)c1ccc(-c2ccc3c(F)c(O)ccc3c2)c(Cl)c1` [Example 29, 3-chloro-4-(5-fluoro-6-hydroxynaphthalen-2-yl)benzoic acid] and `Cc1cc(C(=O)O)ccc1-c1ccc2c(F)c(O)ccc2c1` [Example 32, 4-(5-fluoro-6-hydroxynaphthalen-2-yl)-3-methylbenzoic acid] cannot be ordered by pIC50: greater than 7.30 for the first, greater than 7.30 for the second.

Tested on: not listed separately
Assay: Mouse pharmacokinetic (PK) study
Type: in vivo
Details: plasma, male BALB/c mice, PO 10 mg/kg, IV 2 mg/kg
Text: The mouse was used to determine the pharmacokinetics of compounds of the invention. This species is widely used to assess the bioavailability of compounds by administering both oral (PO) and intravenous (IV) test articles. Efficacy of the compounds of the invention was compared by assessing plasma exposure in male BALB/c mice either via IV or PO administration at the times of peak activity.
Compounds of the invention were reconstituted in a phosphate buffered saline (PBS)/10% Solutol (HS 15) clear solution resulting in a concentration of 0.2 mg/mL and administered to mice (2 mg/kg) as a single IV dose. Animals were dosed via the lateral tail vein. […] The plasma was transferred into labeled polypropylene tubes and frozen at −70° C. until analyzed by LC/MS/MS.
The compounds of the invention were reconstituted in 40% Propylene Glycol/40% Propylene Carbonate/20% of a 5% Sucrose clear solution resulting in a concentration of 2 mg/mL and administered to mice (10 mg/kg) as a single oral dose via gavage. […] The plasma was transferred into labeled polypropylene tubes and frozen at −70° C. until analyzed by LC/MS/MS.
Plasma samples at each timepoint were analyzed using a LC-MS/MS with a lower limit of quantification (LLOQ) of 1 ng/mL. […]
In addition to the above PK parameters, bioavailability (% F) was calculated.

For `O=C(O)c1ccc(-c2ccc3cc(O)ccc3c2)c(F)c1` [Example 2, 3-fluoro-4-(6-hydroxynaphthalen-2-yl)benzoic acid], the bioavailability was greater than 40%.

Tested on: dextran sodium sulfate (DSS)-induced IBD
Assay: Acute prophylactic model of DSS-induced IBD
Type: in vivo, mouse
Details: acute DSS-induced IBD
Text: Acute and chronic models of dextran sodium sulfate (DSS)-induced IBD in mice were used to explore efficacy of GSNORi against this disease. Acute and chronic DSS-induced IBD are widely used and well characterized models that induce pathological changes in the colon similar to those observed in the human disease. In these models and in human disease, epithelial cells within the crypts of the colon are disrupted, leading to dysfunction of the epithelial barrier and the ensuing tissue inflammation, edema, and ulceration. GSNORi therapy may benefit IBD by restoring s-nitrosoglutathione (GSNO) levels, and thus prevent or reverse the epithelial barrier dysfunction. Experimental IBD was induced by administration of DSS in the drinking water of male C57B1/6 mice (N=8 to 10 mice per group) for 6 consecutive days. GSNORi was dosed orally at doses of 0.1 to 10 mg/kg/day for 10 days starting two days prior to and continuing two days post DSS exposure. Two days post DSS exposure, the effect of GSNORi was assessed in a blinded fashion via endoscopy and histopathology using a five point scale ranging from a score=0 (normal tissue) through a score=4 (ulcerative tissue damage and marked pathological changes). Levels of circulating cytokines involved in inflammatory pathways were also assessed. The effect of GSNORi was compared to vehicle treated controls. The corticosteroid, prednisolone, was used as the positive control in this study and was administered daily at 3 mg/kg/day via oral dosing. Naïve mice (N=5) were also assessed as a normal tissue control.

For `O=C(O)c1ccc(-c2ccc3cc(O)ccc3c2)c(F)c1` [Example 2, 3-fluoro-4-(6-hydroxynaphthalen-2-yl)benzoic acid], the “colon injury (in words)” value was “attenuated colon injury”.

Same assay, conditions: acute model; oral 10 mg/kg/day for 10 consecutive days, prophylactic dosing regimen

For `O=C(O)c1ccc(-c2ccc3cc(O)ccc3c2)c(F)c1` [Example 2, 3-fluoro-4-(6-hydroxynaphthalen-2-yl)benzoic acid], the “decrease of percent of mice presenting with severe colon injury scores via histopathology, of vehicle control” value was 26%.

Same assay, conditions: acute model; oral 10 mg/kg/day for 10 days; p<0.05

For `O=C(O)c1ccc(-c2ccc3cc(O)ccc3c2)c(F)c1` [Example 2, 3-fluoro-4-(6-hydroxynaphthalen-2-yl)benzoic acid], the “decrease of percent of mice presenting with severe endoscopy scores, of vehicle control” value was 58%.
